Source: PubChem BioAssay (NCI)
Values joined by “and” are separate entries in the source; they are usually repeats but may differ in a detail not shown here. Equal entries are not always repeated.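 Grown in 96-well plates, cells were treated for 48 hours with each compound at five concentrations. Insufficient inhibition: endpoint recorded as highest concentration tested. GI50 is the concentration that inhibits growth by half. TGI is the concentration that stops growth completely.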

How the values were obtained:
Experiment in all cases: NCI tumour cell line growth inhibition, 48 h
A498 renal = system: A498 renal
SNB-19 CNS = system: SNB-19 CNS
HOP-92 NSCLC = system: HOP-92 NSCLC
SW-620 colon = system: SW-620 colon
IGROV1 ovarian = system: IGROV1 ovarian
OVCAR-5 ovarian = system: OVCAR-5 ovarian
TK-10 renal = system: TK-10 renal
PC-3 prostate = system: PC-3 prostate
NCI-H23 lung = system: NCI-H23 lung
KM12 colon = system: KM12 colon
OVCAR-4 ovarian = system: OVCAR-4 ovarian

SMILES	TGI (A498 renal)	TGI (SNB-19 CNS)	TGI (HOP-92 NSCLC)	TGI (SW-620 colon)	TGI (IGROV1 ovarian)	TGI (OVCAR-5 ovarian)	TGI (TK-10 renal)	TGI (PC-3 prostate)	TGI (NCI-H23 lung)	TGI (KM12 colon)	TGI (OVCAR-4 ovarian)	GI50 (SNB-19 CNS)	GI50 (HOP-92 NSCLC)	GI50 (SW-620 colon)	GI50 (IGROV1 ovarian)	GI50 (OVCAR-5 ovarian)	GI50 (TK-10 renal)	GI50 (PC-3 prostate)	GI50 (KM12 colon)	GI50 (OVCAR-4 ovarian)
O=C(O)CSCc1cc2c(O)c(c1)Cc1cc(CSCC(=O)O)cc(c1O)Cc1cc(CSCC(=O)O)cc(c1O)Cc1cc(CSCC(=O)O)cc(c1O)C2	> 100 µM	> 100 µM	> 100 µM	> 100 µM	> 100 µM	> 100 µM	> 100 µM	> 100 µM	> 100 µM	> 100 µM	> 100 µM									
Oc1ccc2c(c1)CCc1c-2n(CCN2CCOCC2)c2ccc(O)cc12	39.6 µM	> 100 µM		> 100 µM	60.9 µM	> 100 µM	> 100 µM	> 100 µM	90.3 µM	52.9 µM										
CCN(CC)CCC(=O)c1ccc(Sc2ccc(F)cc2)cc1	45.7 µM	34 µM		41.2 µM	35 µM	39.3 µM	27.9 µM	33.6 µM	33.9 µM	30.6 µM	42.9 µM									
COc1cc(C(=O)/C=C/c2ccc(OCCSCCCCCCCCCCSCCOc3ccc(/C=C/C(=O)c4cc(OC)c(OC)c(OC)c4)cc3)cc2)cc(OC)c1OC	> 100 µM	> 100 µM	> 100 µM	> 100 µM	> 100 µM	> 100 µM	> 100 µM	> 100 µM	> 100 µM	> 100 µM										
COc1cc([C@@H]2c3cc4c(c(O)c3C[C@H]3COC(=O)[C@@H]32)OCO4)cc(OC)c1OC	> 100 µM					150 µM and > 241 µM and > 100 µM	37.5 µM and 167 µM and > 100 µM	> 241 µM				0.114 µM	8.17 µM	0.123 µM	0.0728 µM	0.725 µM	0.505 µM	0.0428 µM and 0.161 µM	0.104 µM	2.3 µM
S=C(NNC1=NCCCCN1)Nc1ccc(Cl)cc1	> 100 µM	> 100 µM	> 100 µM	> 100 µM	> 100 µM	> 100 µM	> 100 µM	62.8 µM	> 100 µM	> 100 µM	> 100 µM									
O=C(c1cc2ccccc2[nH]1)N1C2CCC1CN(CCOC(c1ccc(F)cc1)c1ccc(F)cc1)CC2 (centres undefined)	> 100 µM	> 100 µM	> 100 µM	> 100 µM	> 100 µM	> 100 µM	> 100 µM	> 100 µM	> 100 µM	> 100 µM	> 100 µM									
COC(=O)[C@H](Cc1ccccc1)NC(=O)/C(=C/C(C)C)NC(=O)[C@H](CCSC)NC=O	> 100 µM	> 100 µM	> 100 µM	> 100 µM	> 100 µM		> 100 µM		> 100 µM	> 100 µM	> 100 µM									
N#C[C@H](C(=O)c1ccccc1F)c1nc2ccccc2s1	> 100 µM	> 100 µM	> 100 µM	> 100 µM	> 100 µM	> 100 µM	> 100 µM	> 100 µM	> 100 µM	38.6 µM										
O=C(CC(CC(=O)Oc1c(Br)cc(Br)cc1C(=O)O)C(=O)Oc1c(Br)cc(Br)cc1C(=O)O)Oc1c(Br)cc(Br)cc1C(=O)O	> 100 µM	> 100 µM	49.8 µM	> 100 µM	87.3 µM	> 100 µM	> 100 µM		> 100 µM	> 100 µM	> 100 µM									
CCOc1ccc(N/C(=C(/C(Cl)=C(/Cl)Nc2ccccc2)[N+](=O)[O-])n2nnc3ccccc32)cc1	> 100 µM	> 100 µM	40.6 µM			> 100 µM	> 100 µM	58.4 µM	32.6 µM	> 100 µM	> 100 µM									
CC(C)C1OC(N)=C(C#N)C1(C#N)C#N (centres undefined)	> 100 µM	> 100 µM	> 100 µM	> 100 µM	> 100 µM	> 100 µM	> 100 µM	> 100 µM	> 100 µM	> 100 µM										
CCCC(=O)NC(Nc1cc(C)ccn1)(C(=O)OCC)C(F)(F)F (centres undefined)		> 100 µM	> 100 µM	> 100 µM	> 100 µM	> 100 µM	> 100 µM	> 100 µM	> 100 µM	> 100 µM	> 100 µM									
O=C1NC(=S)N/C1=C\c1cc2c(=O)c3ccccc3sc2s1	> 100 µM	> 100 µM		> 100 µM	> 100 µM	> 100 µM	> 100 µM	> 100 µM	> 100 µM	> 100 µM	> 100 µM									
Cc1[nH]c(=O)nc2c1C(NCCCN(C)C)c1cc(Cl)ccc1N2 (centres undefined)		31.2 µM	23.4 µM	28.6 µM	30.1 µM		32.5 µM		32.3 µM	30.3 µM										
Cc1cc([N+](=O)[O-])ccc1Sc1c2ccccc2nc2cc(Cl)ccc12	> 100 µM	> 100 µM	76.6 µM	93.5 µM	> 100 µM	> 100 µM	> 100 µM		76.9 µM	50.4 µM	> 100 µM									
COC(=O)CCC(NC(=S)N/N=C/c1ccccn1)C(=O)OC (centres undefined)	> 100 µM	> 100 µM	> 100 µM	> 100 µM	> 100 µM	> 100 µM	> 100 µM		> 100 µM	> 100 µM	> 100 µM									
O=C1c2cccnc2S(=O)(=O)N1c1ccc(Oc2ccccc2)cc1	> 100 µM	> 100 µM	> 100 µM	> 100 µM	> 100 µM	> 100 µM		> 100 µM	> 100 µM	> 100 µM	> 100 µM									
CC1=NN(C(=O)c2ccccc2O)C(=O)/C1=C/c1cccc(O)c1	0.323 µM	> 100 µM	> 100 µM	> 100 µM		> 100 µM	> 100 µM	> 100 µM		> 100 µM	> 100 µM									
c1cnn(C23C4C5C6C4C2C6C53)c1 (centres undefined)	> 100 µM	> 100 µM		> 100 µM	> 100 µM	> 100 µM	> 100 µM	> 100 µM	> 100 µM	> 100 µM										
CC(=O)OC1CC2CCN3C(=O)c4cc5c(cc4[C@H](C1OC(C)=O)C23)OCO5 (some centres undefined)		> 100 µM		> 100 µM	> 100 µM		> 100 µM		> 100 µM	> 100 µM										
